Like-named read-outs stand apart in the source and are kept apart here.
Experiments:
[1] = MTT cell viability assay, non-tumoral Vero cells; conditions: African green monkey, Vero cells (African green monkey kidney, non-tumoral)
Procedure: (§1) HL-60 (human promyelocytic leukemia cell line) and Vero (African green monkey kidney) cell lines from American Type Culture Collection (ATCC-LGC) were each grown in Dulbecco’s modified Eagle’s medium (DMEM) with 4.5 g/L glucose (Sigma-Aldrich), supplemented with 10% fetal bovine serum (Gibco), 1% of a penicillin–streptomycin mixture (10.000 and 10 mg/mL, respectively), and 200 mM L-glutamine. Cells were maintained at 37 °C in 5% CO2 and 98% humidity.
(§2) Viable cells were assessed using the colorimetric MTT [3-(4,5-dimethylthiazol-2-yl)-2,5-diphenyl tetrazolium bromide reduction assay [49]. A cell suspension (1 × 10^4 /200 μL/well) in log-phase of growth seeded in DMEM, supplemented with 5% fetal bovine serum in microtiter well plates (96 wells, Iwaki, London, UK) were added to compounds predissolved in dimethylsulphoxide (DMSO) at different concentrations. After 48 h of incubation, 20 μL/well of the MTT solution (5 mg/mL in phosphate buffered saline, PBS) were added and plates incubated for 4 h at 37 °C. Subsequently, the medium/MTT solutions were removed carefully by aspiration and replaced with 150 μL/well of DMSO to dissolve the formazan crystals. Absorbance was measured in a microplate reader (Infinite M200, Tecan) at a wavelength of 550 nm. Solvent control cultures were considered 100% and percentage of viable treated cells were plotted against compound concentrations. The 50% cell viability value (IC50) was calculated from the curve. Each experiment was performed at least three times in triplicates. Data are given in arithmetic means ± SD. Selectivity ratio was defined as IC50 value for the tumoral cell line divided by IC50 value for the Vero cell line.

[2] = system: HL-60 (human promyelocytic leukemia cell line); assay: MTT cell viability (antiproliferative) assay, HL-60; conditions: for IC50: mean ± SD of three independent experiments; for SI (selectivity index): Vero (IC50) on HL-60 (IC50)
Procedure: as §1, §2

in vitro = conditions: African green monkey
Procedure: as §1, §2

[3] = system: Vero (African green monkey kidney) cell line; assay: MTT cell viability assay, non-tumoral Vero cells; conditions: read-out: Cytotoxic activity IC50, Vero; MTT, 48 h incubation; mean ± SD of three independent experiments
Procedure: as §1, §2

[4] = system: HL-60 (human promyelocytic leukemia cell line); conditions: 48 h
Procedure: as §1, §2

[5] = system: Vero (African green monkey kidney) cell line; conditions: 48 h
Procedure: as §1, §2

[6] = Cytotoxic activity IC50, Vero, MTT, 48 h incubation, mean ± SD of three independent experiments
[7] = Homo sapiens, HL-60, 48 h, read-out: Cytotoxic activity IC50, HL 60, MTT, 48 h incubation
[8] = read-out: Cytotoxic activity IC50, HL 60, MTT, 48 h incubation

| Compound | IC50 [2, 7] [µM] | SI (selectivity index) [2] | IC50 at 48 h (in vitro; Cytotoxic activity IC50, Vero) [µM] | also measured |
| --- | --- | --- | --- | --- |
| CC1=C(CO)C(=O)OC(C(C)C2CCC3C4CC(O)C5(C=O)CCC(=O)C5(C)C4CCC23C)C1 (stereo not drawn) [Compound 29, 4β-formyl-6β,27-dihydroxy-1-oxo-witha-24-enolide] | 19.2 ± 0.84 | >2.1 | – | IC50 at 48 h [1, 6]: > 40 µM |
| CC1=C(CO)C(=O)OC(C(C)=C2C(O)CC3C4CC5OC56C(O)C=CC(=O)C6(C)C4CCC23C)C1 (stereo not drawn) [Compound 18, 5β,6β-epoxy-4β,16β,27-trihydroxy-1-oxo-witha-2,17(20),24-trienolide] | 8.2 ± 0.43 | 4.2 | 34.7 ± 0.75 | – |
| CC1=C(C)C(=O)OC(C(C)C2=CCC3C4CC=C5C(O)C=CC(=O)C5(C)C4CCC23C)C1 (stereo not drawn) [Compound 6, 4β-hydroxy-1-oxo-witha-2,5,16,24-tetraenolide] | 7 ± 0.55 | 1.6 | 11.5 ± 0.09 | – |
| 16β,27-dihydroxy-1,4-dioxo-witha-2,5,17(20),24-tetraenolide [Compound 11] | – | >1.4 | – | IC50 [3]: > 40 µM; IC50 [2, 8]: 27.8 ± 0.45 µM |
| CC1=C(CO)C(=O)OC(C(C)C2(O)CCC3C4CC=C5C(O)C=CC(=O)C5(C)C4CCC32C)C1 (stereo not drawn) [Compound 13, 4β,17α,27-trihydroxy-1-oxo-witha-2,5,24-trienolide] | – | 1.9 | – | IC50 [4]: 12.3 ± 0.11 µM; IC50 [5]: 23.8 ± 0.41 µM |
| CC1=C(CO)C(=O)OC(C(C)C2CCC3C4CC=C5C(O)C=CC(=O)C5(C)C4CCC23C)C1 (stereo not drawn) [Compound 7, 4β,27-dihydroxy-1-oxo-witha-2,5,24-trien olide] | 15.7 ± 0.04 | >2.6 | > 40 | – |
| CC1=C(CO)C(=O)O[C@@H]([C@@H](C)C2=CC[C@H]3[C@@H]4C[C@H]5O[C@]56[C@@H](O)C=CC(=O)[C@]6(C)[C@H]4CC[C@]23C)C1 [Compound 19, witharistatin] | ≤ 0.5 | 3.8 | – | IC50 [4]: 0.5 ± 0.05 µM; IC50 at 48 h (in vitro): 1.9 ± 0.08 µM |
| CC1=C(CO)C(=O)OC(C(C)C2=CCC3C4CC(O)C56C=CC(OO5)C(=O)C6(C)C4CCC23C)C1 (stereo not drawn) [Compound 4, 6β,27-Dihydroxy-2α,5α-dioxan-1-oxo-witha-3,16,24-trien-26,22-olide] | 6.2 ± 0.1 | 5.1 | – | IC50 at 48 h [1, 6]: 31.6 ± 0.08 µM |
| 4β,16β-dihydroxy-1-oxo-witha-2,5,17(20),24-tetraenolide [Compound 10] | – | >2.4 | – | IC50 [3]: > 40 µM; IC50 [2, 8]: 16.8 ± 0.75 µM |
| CC1=C(CO)C(=O)OC(C(C)C2CCC3C4CC5OC56C(=O)C=CC(=O)C6(C)C4CCC23C)C1 (stereo not shown) [Compound 22, 4-dehydro-withaferin A] | 0.7 ± 0.09 | 24.1 | 16.9 ± 0.7 | – |
| CC1=C(CO)C(=O)OC(C(C)C2CCC3C4CC(O)C5(C=O)C=CC(=O)C5(C)C4CCC23C)C1 (stereo not drawn) [Compound 28, 4β-formyl-6β,27-dihydroxy-1-oxo-witha-2,24-dienolide] | 30.5 ± 0.45 | >1.3 | – | IC50 at 48 h [1]: > 40 µM |
| CC1=C(CO)C(=O)OC(C(C)C2(O)CCC3C4CC(O)C56C=CC(OO5)C(=O)C6(C)C4CCC32C)C1 (stereo not drawn) [Compound 1, 6β,17α,27-Trihydroxy-2α,5α-dioxan-1-oxo-witha-3,24-dien-26,22-olide] | – | >3.1 | – | IC50 at 48 h [1]: > 40 µM; IC50 [2, 8]: 12.8 ± 0.24 µM |
| CC1=C(CO)C(=O)OC(C(C)C2(O)CCC3C4CC(O)C56C=CC(OO5)C(=O)C6(C)C4CCC32C)C1 (stereo not drawn) [Compound 2, 6β,17α,27-Trihydroxy-2β,5β-dioxan-1-oxo-witha-3,24-dien-26,22-olide] | – | >1.5 | – | IC50 [3]: > 40 µM; IC50 [2, 8]: 26.7 ± 0.6 µM |
| CC1=C(CO)C(=O)O[C@@H]([C@@H](C)[C@H]2CC[C@H]3[C@@H]4C[C@H]5O[C@]56[C@@H](O)[C@@H](O)CC(=O)[C@]6(C)[C@H]4CC[C@]23C)C1 [Compound 24, viscosalactone B] | > 40 | – | – | IC50 at 48 h [1, 6]: > 40 µM |
| COc1cc([C@@H]2c3cc4c(cc3[C@@H](O[C@@H]3O[C@@H]5CO[C@@H](C)O[C@H]5[C@H](O)[C@H]3O)[C@H]3COC(=O)[C@H]23)OCO4)cc(OC)c1O [Etoposide, reference compound] | 2.4 ± 0.1 | 8.2 | – | IC50 at 48 h [1, 6]: 19.5 ± 0.16 µM |
| CC1=C(CO)C(=O)OC(C(C)C2CCC3C4CC(Cl)C5(O)C(O)C=CC(=O)C5(C)C4CCC23C)C1 (stereo not drawn) [Compound 27, 6α-chloro-5β-hydroxywithaferin A] | 1.1 ± 0.2 | 7.1 | 7.8 ± 0.36 | fold more potent than its corresponding hydroxyl derivative 26 ([2]; HL-60 cytotoxic effect, versus 26): 12 fold |
| CC1=C(CO)C(=O)OC(C(C)C2=CCC3C4CC=C5C(=O)C=CC(=O)C5(C)C4CCC23C)C1 (stereo not shown) [Compound 8, 27-hydroxy-1,4-dioxo-witha-2,5,16,24-tetraenolide] | 4.2 ± 0.25 | 3.7 | 15.5 ± 0.35 | – |
| CC1=C(C)C(=O)OC(C(C)C2CC=C3C4CC5OC56C(O)C=CC(=O)C6(C)C4CCC32C)C1 (stereo not drawn) [Compound 21, 5β,6β-epoxy-4β-hydroxy-1-oxo-22R-witha-2,14,24-trienolide] | 0.9 ± 0.05 | 6.9 | 6.2 ± 0.11 | – |
| CC(=O)OCC1=C(C)CC(C(C)C2CCC3C4CC5OC56C(O)C=CC(=O)C6(C)C4CCC23C)OC1=O (stereo not shown) [Compound 16, 27-acetyl-withaferin A] | ≤ 0.5 | – | 5.7 ± 0.13 | IC50 [4]: 0.4 ± 0.06 µM |
| CC1=C(CO)C(=O)OC(C(C)C2(O)CCC3C4CC=C5C(O)C=CC(=O)C5(C)C4CCC32C)C1 (stereo not drawn) [Compound 12, 4α,17α,27-trihydroxy-1-oxo-witha-2,5,24-trienolide] | 6.6 ± 0.14 | >6.1 | > 40 | fold more potent than the β-disposition (13) ([2]; HL-60, versus 13): 2 fold |
| CC(=O)OCC1=C(C)CC(C(C)C2CCC3C4CC5OC56C(O)C(O)CC(=O)C6(C)C4CCC23C)OC1=O (stereo not shown) [Compound 25, 27-O-acetyl-viscosalactone B] | 1.5 ± 0.54 | 7.9 | 11.8 ± 0.1 | fold more potent than its corresponding hydroxyl derivative 24 ([2]; HL-60 cytotoxic effect, versus 24): 26 fold |
| CC1=C(CO)C(=O)O[C@@H]([C@@H](C)[C@H]2CC[C@H]3[C@@H]4C[C@H]5O[C@]56[C@@H](O)C=CC(=O)[C@]6(C)[C@H]4CC[C@]23C)C1 [Compound 14, withaferin A] | – | 33.0 | – | IC50 at 48 h [1, 6]: 6.4 ± 0.21 µM; IC50 [2, 8]: 0.2 ± 0.02 µM; IC50 ([2]; read-out: Cytotoxic activity IC50, HL 60, MTT, 48 h incubation, listed as WA): ≤ 0.5 µM |
| 4β,16β,27-trihydroxy-1-oxo-witha-2,5,17(20),24-tetraenolide [Compound 9] | – | 1.7 | – | IC50 [3]: 25.7 ± 0.65 µM; IC50 [2, 8]: 14.8 ± 0.68 µM |
| CC1=C(CO)C(=O)OC(C(C)C2(O)CCC3C4CC5OC56C(O)C=CC(=O)C6(C)C4CCC32C)C1 (stereo not drawn) [Compound 23, 5β,6β-epoxy-4β,17α,27-trihydroxy-1-oxo-witha-2,24-dienolide] | 6.5 ± 0.55 | >6.2 | > 40 | – |
| CC1=C(C)C(=O)OC(C(C)C2=CCC3C4CC5OC56C(O)C=CC(=O)C6(C)C4CCC23C)C1 (stereo not shown) [Compound 20, 27-deoxy-16-en-withaferin A] | 4.6 ± 0.35 | 2.2 | 10 ± 0.61 | – |
| CC1=C(CO)C(=O)OC(C(C)C2CCC3C4CC(O)C56C=CC(OO5)C(=O)C6(C)C4CCC23C)C1 (stereo not drawn) [Compound 3, 6β,27-Dihydroxy-2α,5α-dioxan-1-oxo-witha-3,24-dien-26,22-olide] | 3.3 ± 0.45 | 4.9 | – | IC50 at 48 h [1, 6]: 16 ± 0.73 µM |
| CC1=C(CO)C(=O)OC(C(C)C2=CCC3C4CC=C5C(O)C=CC(=O)C5(C)C4CCC23C)C1 (stereo not drawn) [Compound 5, 4β,27-dihydroxy-1-oxo-witha-2,5,16,24-tetraenolide] | 8.2 ± 0.09 | 0.8 | 6.4 ± 0.12 | – |
| CC1=C(C)C(=O)OC(C(C)C2CCC3C4CC5OC56C(O)C=CC(=O)C6(C)C4CCC23C)C1 (stereo not drawn) [Compound 15, 5β,6β-epoxy-4β-hydroxy-1-oxo-witha-2,24-dienolide] | ≤ 0.5 | – | 4.6 ± 0.09 | IC50 [4]: 0.5 ± 0.07 µM |
| CC1=C(CO)C(=O)OC(C(C)C2CCC3C4CC(O)C5(O)C(O)C=CC(=O)C5(C)C4CCC23C)C1 (stereo not shown) [Compound 26, 2,3-dehydrosomnifericin] | 13.4 ± 0.85 | >3.0 | > 40 | – |
